{"source": "patent US20100255580A1", "about": "“Differentiation of Human Embryonic Stem Cells” (LIFESCCAN, INC., priority 2007, published 2010)", "assay_type_in_all_cases": "cell-based", "key": {"[1]": {"test_system": "human embryonic stem cell line H9", "test": "Real-time PCR, H9 maintained on […] and differentiated on MEFs (Example 25)", "settings": "lower concentration of Activin A, regardless of Wnt3a", "experimental": "(§1) Cells from the human embryonic stem cell line H9 cultured on […]™ for at least five passages were seeded onto MEF feeders in ES media.\n(§2) At day 3 and 5, the cultures were analyzed by real time PCR for SOX-17, SOX-7, Alpha-fetal protein (AFP), CXCR4, Brychyury (Bry), gooscecoid (GSC), HNF-3 beta, GATA4, hTERT and Oct4. AFP and SOX-7 are regarded as visceral endoderm markers while GATA4, HNF-3beta and SOX-17 represent definite endoderm markers and GSC, Bry, and CXCR4 represent markers of primitive streak. hTERT and Oct-4 are markers for self renewal and pluripotency respectively. FACS analysis was also performed at day 3 and 5."}, "[2]": {"test_system": "human embryonic stem cell line H9", "test": "Cytokine array analysis of cell lysates and conditioned media", "design": "key to BMP-4 expression / BMP-6 expression / EGF expression / FGF-6 expression / Fractalkine expression / GCP-2 expression / IL-3 expression / IL-4 expression / IL-6 expression / M-CSF expression / MIG expression / Amphiregulin expression: cytokine array signal, normalized and background-subtracted", "experimental": "The effect that Wnt-3a treatment has on cytokine expression was analyzed using a protein array. Cells of the human embryonic stem cell line H9 were cultured according to the methods described in Example 15. At passage 54, cells were differentiated in the presence of 100 ng/ml ActivinA+/−10 ng/ml Wnt3a for 2 days in 0.5% FBS DMEM/F12. Cells were subsequently cultured for an additional three days in 100 ng/mlActivin A and 2% FBS DMEM/F12. At the end of the 5th day, CXCR4 expression was determined by FACS for each treatment group.\nCell lysates were prepared from cells of each treatment group, with a mammalian cell lysis kit (Sigma-Aldrich, MO). Conditioned media from each treatment group was collected and concentrated. Cytokine array analysis was completed using Cytokine Array panels provided by RayBiotech, GA (http://www.raybiotech.com/). Table VII lists cytokine, growth factor, and receptor expression following normalization of the data and background subtraction. For each panel, positive and negative controls are also included. Th data shown are two independent samples per cell treatment group (1,2)."}, "[3]": {"test_system": "human embryonic stem cell line H9", "test": "FACS of CXCR4 and CD9, H9 maintained on […] and differentiated on MEFs (Example 25)", "settings": "without (label Activin A) or with Wnt3a", "experimental": "Adhered cells were removed from culture plates by five-minute incubation with TrypLE™ Express solution (Invitrogen, CA). Released cells were resuspended in human embryonic stem cell culture medium and recovered by centrifugation, followed by washing and resuspending the cells in a staining buffer consisting of 2% BSA, 0.05% sodium azide in PBS (Sigma, MO). As appropriate, the cells were Fc-receptor blocked for 15 minutes using a 0.1% γ-globulin (Sigma) solution. […] Controls included appropriate isotype matched antibodies, unstained cells, and cells stained only with secondary conjugated antibody. All incubations with antibodies were performed for 30 mins at 4° C. after which the cells were washed with the staining buffer. Samples that were stained with unconjugated primary antibodies were incubated for an additional 30 mins at 4° C. with secondary conjugated PE or -APC labeled antibodies. See Table I for a list of secondary antibodies used. Washed cells were pelleted and resuspended in the staining buffer, and the cell surface molecules were identified using a FACS Array (BD Biosciences) instrument, collecting at least 10,000 events.\nas §1, §2"}}, "note": "Values joined by “and” are separate entries in the source; they are usually repeats but may differ in a detail not shown here. Equal values may be shown once.", "data": [{"substance": "Activin A: a member of the TGFβ superfamily; R&D Systems; Group 2 = Activin A (100 ng/ml)", "values": [{"measurement": "AFP expression", "setting": "[1]", "value": "very high"}, {"measurement": "1L-1beta expression", "setting": "[2]; Cell conditioned media", "value": "117.99 and 75.93"}, {"measurement": "1L-1ra expression", "setting": "[2]; Cell conditioned media", "value": "142.34 and 93.74"}, {"measurement": "Acrp30 expression", "setting": "[2]; Cell conditioned media", "value": "1,797.52 and 1,319.88"}, {"measurement": "AgRP expression", "setting": "[2]; Cell conditioned media", "value": "378.17 and 195.90"}, {"measurement": "Amphiregulin expression", "setting": "[2]; Cell conditioned media", "value": "250.52 and 151.01"}, {"measurement": "Angiogenin expression", "setting": "[2]; Cell conditioned media", "value": "13,726.35 and 11,749.55"}, {"measurement": "Angiopoietin-2 expression", "setting": "[2]; Cell conditioned media", "value": "655.82 and 632.60"}, {"measurement": "AxI expression", "setting": "[2]; Cell conditioned media", "value": "401.31 and 324.05"}, {"measurement": "BDNF expression", "setting": "[2]; Cell conditioned media", "value": "689.22 and 563.39"}, {"measurement": "BMP-4 expression", "setting": "[2]; Cell conditioned media", "value": "583.40 and 541.83"}, {"measurement": "BMP-6 expression", "setting": "[2]; Cell conditioned media", "value": "354.91 and 355.28"}, {"measurement": "CK beta 8-1 expression", "setting": "[2]; Cell conditioned media", "value": "17.79 and 25.31"}, {"measurement": "CNTF expression", "setting": "[2]; Cell conditioned media", "value": "282.81 and 211.86"}, {"measurement": "EGF expression", "setting": "[2]; Cell conditioned media", "value": "1,681.85 and 1,406.12"}, {"measurement": "Eotaxin expression", "setting": "[2]; Cell conditioned media", "value": "207.89 and 199.67"}, {"measurement": "Eotaxin-2 expression", "setting": "[2]; Cell conditioned media", "value": "890.56 and 744.31"}, {"measurement": "Eotaxin-3 expression", "setting": "[2]; Cell conditioned media", "value": "975.77 and 665.56"}, {"measurement": "FGF-7 expression", "setting": "[2]; Cell conditioned media", "value": "449.49 and 352.47"}, {"measurement": "Flt-3 Ligand expression", "setting": "[2]; Cell conditioned media", "value": "315.58 and 277.47"}, {"measurement": "Fractalkine expression", "setting": "[2]; Cell conditioned media", "value": "120.80 and 145.30"}, {"measurement": "GCP-2 expression", "setting": "[2]; Cell conditioned media", "value": "203.21 and 166.86"}, {"measurement": "GDNF expression", "setting": "[2]; Cell conditioned media", "value": "176.99 and 194.98"}, {"measurement": "GM-CSF expression", "setting": "[2]; Cell conditioned media", "value": "777.25 and 722.75"}, {"measurement": "IFN-gamma expression", "setting": "[2]; Cell conditioned media", "value": "283.74 and 559.64"}, {"measurement": "IGF-I expression", "setting": "[2]; Cell conditioned media", "value": "88.96 and 148.11"}, {"measurement": "IGFBP-1 expression", "setting": "[2]; Cell conditioned media", "value": "33.71 and 24.37"}, {"measurement": "IGFBP-2 expression", "setting": "[2]; Cell conditioned media", "value": "27,656.85 and 28,473.95"}, {"measurement": "IGFBP-4 expression", "setting": "[2]; Cell conditioned media", "value": "10,091.09 and 6,029.45"}, {"measurement": "IL-1alpha expression", "setting": "[2]; Cell conditioned media", "value": "10,155.70 and 5,842.90"}, {"measurement": "IL-2 expression", "setting": "[2]; Cell conditioned media", "value": "188.22 and 363.72"}, {"measurement": "IL-3 expression", "setting": "[2]; Cell conditioned media", "value": "4,598.86 and 5,260.77"}, {"measurement": "IL-4 expression", "setting": "[2]; Cell conditioned media", "value": "357.72 and 239.04"}, {"measurement": "IL-6 expression", "setting": "[2]; Cell conditioned media", "value": "7,377.28 and 9,527.88"}, {"measurement": "IL-7 expression", "setting": "[2]; Cell conditioned media", "value": "456.98 and 430.27"}, {"measurement": "IL-10 expression", "setting": "[2]; Cell conditioned media", "value": "722.93 and 564.32"}, {"measurement": "IL-16 expression", "setting": "[2]; Cell conditioned media", "value": "259.39 and 214.67"}, {"measurement": "LIGHT expression", "setting": "[2]; Cell conditioned media", "value": "619.92 and 453.71"}, {"measurement": "Leptin expression", "setting": "[2]; Cell conditioned media", "value": "2,999.42 and 2,016.38"}, {"measurement": "M-CSF expression", "setting": "[2]; Cell conditioned media", "value": "529.09 and 269.04"}, {"measurement": "MCP-1 expression", "setting": "[2]; Cell conditioned media", "value": "572.17 and 500.58"}, {"measurement": "MCP-4 expression", "setting": "[2]; Cell conditioned media", "value": "123.61 and 61.87"}, {"measurement": "MIG expression", "setting": "[2]; Cell conditioned media", "value": "272.50 and 486.52"}, {"measurement": "NAP-2 expression", "setting": "[2]; Cell conditioned media", "value": "97.39 and 110.61"}, {"measurement": "NT-3 expression", "setting": "[2]; Cell conditioned media", "value": "97.39 and 171.55"}, {"measurement": "PDGF-BB expression", "setting": "[2]; Cell conditioned media", "value": "4,729.96 and 8,521.09"}, {"measurement": "RANTES expression", "setting": "[2]; Cell conditioned media", "value": "393.31 and 347.78"}, {"measurement": "SCF expression", "setting": "[2]; Cell conditioned media", "value": "691.09 and 487.46"}, {"measurement": "TGF-beta 1 expression", "setting": "[2]; Cell conditioned media", "value": "752.90 and 740.56"}, {"measurement": "TGF-beta 3 expression", "setting": "[2]; Cell conditioned media", "value": "111.44 and 115.30"}, {"measurement": "TNF-beta expression", "setting": "[2]; Cell conditioned media", "value": "675.17 and 671.19"}, {"measurement": "bFGF expression", "setting": "[2]; Cell conditioned media", "value": "7,948.03 and 4,993.83"}, {"measurement": "1L-1beta expression", "setting": "[2]; Cell lysate", "value": "1.00 and 1.13"}, {"measurement": "1L-1ra expression", "setting": "[2]; Cell lysate", "value": "33.00 and 25.91"}, {"measurement": "Amphiregulin expression", "setting": "[2]; Cell lysate", "value": "17.50 and 15.44"}, {"measurement": "AxI expression", "setting": "[2]; Cell lysate", "value": "637.50 and 795.83"}, {"measurement": "BDNF expression", "setting": "[2]; Cell lysate", "value": "167.50 and 167.82"}, {"measurement": "BMP-4 expression", "setting": "[2]; Cell lysate", "value": "247.00 and 273.70"}, {"measurement": "CK beta 8-1 expression", "setting": "[2]; Cell lysate", "value": "1.00 and 1.13"}, {"measurement": "Eotaxin-2 expression", "setting": "[2]; Cell lysate", "value": "262.00 and 336.77"}, {"measurement": "Eotaxin-3 expression", "setting": "[2]; Cell lysate", "value": "184.50 and 284.96"}, {"measurement": "FGF-6 expression", "setting": "[2]; Cell lysate", "value": "629.00 and 379.57"}, {"measurement": "GM-CSF expression", "setting": "[2]; Cell lysate", "value": "433.00 and 636.37"}, {"measurement": "I-309 expression", "setting": "[2]; Cell lysate", "value": "152.50 and 246.10"}, {"measurement": "IFN-gamma expression", "setting": "[2]; Cell lysate", "value": "349.00 and 441.52"}, {"measurement": "IGFBP-2 expression", "setting": "[2]; Cell lysate", "value": "3,785.50 and 5,554.45"}, {"measurement": "IGFBP-4 expression", "setting": "[2]; Cell lysate", "value": "5,553.00 and 6,043.27"}, {"measurement": "IL-1alpha expression", "setting": "[2]; Cell lysate", "value": "1,236.00 and 1,216.99"}, {"measurement": "IL-5 expression", "setting": "[2]; Cell lysate", "value": "400.50 and 555.84"}, {"measurement": "IL-6 expression", "setting": "[2]; Cell lysate", "value": "828.50 and 516.98"}, {"measurement": "IL-7 expression", "setting": "[2]; Cell lysate", "value": "190.00 and 313.12"}, {"measurement": "IL-13 expression", "setting": "[2]; Cell lysate", "value": "428.50 and 555.84"}, {"measurement": "IL-15 expression", "setting": "[2]; Cell lysate", "value": "599.50 and 808.13"}, {"measurement": "Leptin expression", "setting": "[2]; Cell lysate", "value": "900.50 and 617.79"}, {"measurement": "MCP-1 expression", "setting": "[2]; Cell lysate", "value": "242.50 and 282.71"}, {"measurement": "MIG expression", "setting": "[2]; Cell lysate", "value": "291.00 and 226.39"}, {"measurement": "MIP-1-delta expression", "setting": "[2]; Cell lysate", "value": "1.50 and 1.13"}, {"measurement": "NT-3 expression", "setting": "[2]; Cell lysate", "value": "1.00 and 1.13"}, {"measurement": "SCF expression", "setting": "[2]; Cell lysate", "value": "74.50 and 148.67"}, {"measurement": "TGF-beta 1 expression", "setting": "[2]; Cell lysate", "value": "362.00 and 230.33"}, {"measurement": "TNF-alpha expression", "setting": "[2]; Cell lysate", "value": "431.00 and 579.49"}, {"measurement": "TNF-beta expression", "setting": "[2]; Cell lysate", "value": "241.00 and 342.40"}, {"measurement": "bFGF expression", "setting": "[2]; Cell lysate", "value": "59,820.50 and 54,057.29"}, {"measurement": "CXCR4 positive cells (FACS)", "setting": "[3]; day 3, high concentration of Activin A", "value": "32-42%"}, {"measurement": "CXCR4 positive cells (FACS)", "setting": "[3]; day 5, high concentration of activin A", "value": "28-32%"}]}]}
